# Assay results taken from patent US5929110A, “Fatty acid analogs and prodrugs” (G. D. Searle & Co., priority 1998, dated 1999).
# Read-outs that look alike come from different tables or passages of the source.
# Legend:
# HIV-1 = assay: inhibition of HIV-1; reduction of cytopathogenic effect in virus-infected Leu-3a-positive CEM cells (MTT assay); format: cell-based, strain HTVL-IIIB; settings: Human immunodeficiency virus 1, CCRF-CEM, multiplicity of infection 0.1, MTT read on 7th to 9th day post-infection
# Protocol: Inhibitory activity against HIV-1 was shown by tests involving plating of susceptible human host cells which are syncytium-sensitive with and without virus in microculture plates, adding various concentrations of the test compound, incubating the plates for 7 to 9 days (during which time infected, non-drug treated control cells are largely or totally destroyed by the virus), and then determining the remaining number of viable cells with a colorometric endpoint.
# Various illustrative compounds synthesized above were tested for inhibition of HIV-1 in a test which measured reduction of cytopathogenic effect in virus-infected syncytium-sensitive Leu-3a-positive CEM cells grown in tissue culture as follows:
# Tissue culture plates were incubated at 37° C. in a humidified, 5% CO2 atmosphere and observed microscopically for toxicity and/or cytopathogenic effect (CPE). At 1 hour prior to infection each test article was prepared from the frozen stock, and a 20 μl volume of each dilution (prepared as a 10× concentration) was added to the appropriate wells of both infected and uninfected cells.
# Assays were done in 96-well tissue culture plates. CEM cells were treated with polybrene at a concentration of 2 μg/ml, and an 80 μl volume of cells (1×10^4 cells) was dispensed into each well. A 100 μl volume of each test article dilution (prepared as a 2× concentration) was added to 5 wells of cells, and the cells were incubated at 37° C. for 1 hour. A frozen culture of HIV-1, strain HTVL-IIIB, was diluted in culture medium to a concentration of 5×10^4 TCID50 per ml, and a 20 μl volume (containing 10^3 TCID50 of virus) was added to 3 of the wells for each test article concentration. […] A 20 μl volume of normal culture medium was added to the remaining wells to allow evaluation of cytotoxicity. Each plate contained 6 wells of untreated, uninfected, cell control samples and 6 wells of untreated, infected, virus control samples.
# On the 7th to 9th day post-infection, the cells in each well were resuspended and a 100 μl sample of each cell suspension was removed for use in an MTT assay. A 20 μl volume of a 5 mg/ml solution of 3-(4,5-dimethylthiazol-2-yl)-2,5-diphenyltetrazolium bromide (MTT) was added to each 100 μl cell suspension, and the cells were incubated at 37° C. in 5% CO2 for 4 hours. […] A 100 μl volume of a solution of 10% sodium dodecyl sulfate in 0.01N hydrochloric acid was added to each sample, and the samples were incubated overnight. The absorbance at 590 nm was determined for each sample using a Molecular Devices Vmax microplate reader. This assay detects drug-induced suppression of viral CPE, as well as drug cytotoxicity, by measuring the generation of MTT-formazan by surviving cells.
# [1] = biological half-life in rat hepatic S9 preparation; format: in vitro ADME; settings: liver s9, rat hepatic S9, approximately 2 mcg/mL, 37° C.
# Protocol: Various illustrative compounds synthesized in Examples above were tested for biological half-life. Compounds were incubated at a concentration of approximately 2 mcg/mL in a rat liver S9 preparation which was prepared according to standard procedures with minor modifications^1. The reactions were conducted at 37° C. in a water bath and stopped by the addition of ice cold methanol at various times ranging from 0 to 20 minutes. Aliquots of the incubations were analyzed by high performance liquid chromatography (HPLC) for the compound of interest. The analyses were conducted on a Waters HPLC system consisting of a model 510 pump and a Wisp model 712 automatic injector. Waters C18 columns were used to perform the separations. The compounds were detected by UV adsorption. The mobile phases consisted of acetonitrile and sodium phosphate buffer (40 mM, pH 3.5); specific conditions were varied slightly for each compound. Concentrations of each compound were determined with time and the rate of metabolism was determined by analyzing the data using the CSTRIP program^2.
# ^1 Subcellular Fractionation of Rat Liver. S. Fleischer and M. Kervina in Methods of Enzymology, Vol. XXXI, Biomembranes Part A, S. Fleischer and L. Packer Eds., pp. 6-41 (1974).
# ^2 A. T. Sedman and J. G. Warner, "CSTRIP. A Fortran IV Computer Program for Obtaining Initial Polyexponential Parameter Estimates.", J. Pharm. Sci. 65, 1006-1010 (1976).
# [2] = 0 to 20 minutes, read-out: Half-life
smiles,measurement,setting,value
"COCCCCCCCCCCCC(=O)NCc1ccccc1 [Example 14, 12-Methoxy-N-(phenylmethyl)dodecanamide]",EC50,HIV-1,3.8 µM
same,half-life,[1]; [2],2.41 min
"CCOC(=O)c1cccc(NC(=O)CCCCCCCCCCCOC)c1 [Example 17, Ethyl 3-[(12-Methoxy-1-oxododecyl)amino]-benzoate]",EC50,HIV-1,8.2 µM
same,half-life,[1]; read-out: Half-life (not detected at initial sampling),< 5 min
"COCCCCCCCCCCCC(=O)Nc1cccc(C(=O)O)c1 [Example 18, 3-[(12-Methoxy-1-oxododecyl)amino]benzoic acid]",EC50,HIV-1,> 285 µM
same,half-life,[1]; [2],8.46 min
"CCOC(=O)[C@H](Cc1ccccc1)NC(=O)CCCCCCCCCCCOC [Example 49, N-(12-Methoxy-1-oxododecyl)-L-phenylalanine, Ethyl ester]",EC50,HIV-1,5.4 µM
same,half-life,[1]; [2],1.07 min
"CCCCCCCCCCOCCC(=O)N[C@H](Cc1ccccc1)C(=O)OCC [Example 56, N-(3-(Decyloxy)-1-oxopropyl]-D-phenylalanine, Ethyl ester]",EC50,HIV-1,> 240 µM
same,half-life,[1]; [2],1.97 min
"CCOC(=O)[C@@H](CCCCNC(=O)OCc1ccccc1Cl)NC(=O)CCCCCCCCCCCOC [Example 68, N6-[[(2-Chlorophenyl)methoxy]carbonyl]-N2-(12-methoxy-1-oxododecyl)-D-lysine, Ethyl ester]",EC50,HIV-1,13.1 µM
same,half-life,[1]; [2],8.54 min
"COCCCCCCCCCCCc1nnn[nH]1 [Example 85, 5-(11-Methoxyundecyl)-1H-tetrazole]",EC50,HIV-1,> 390 µM
"CCn1nnnc1CCCCCCCCCCCOC [Example 86A, 1-Ethyl-5-(11-methoxyundecyl)-1H-tetrazole]",EC50,HIV-1,> 350 µM
"CCn1nnc(CCCCCCCCCCCOC)n1 [Example 86B, 2-Ethyl-5-(11-methoxyundecyl)-2H-tetrazole]",EC50,HIV-1,> 350 µM
"COCCCCCCCCCCCc1nnnn1Cc1ccccc1 [Example 87A, 5-(11-Methoxyundecyl)-1-(phenylmethyl)-1H-tetrazole]",EC50,HIV-1,> 290 µM
"COCCCCCCCCCCCc1nnn(Cc2ccccc2)n1 [Example 87B, 5-(11-Methoxyundecyl)-2-(phenylmethyl)-2H-tetrazole]",EC50,HIV-1,> 290 µM
"COCCCCCCCCCCCCO [Example 88, 12-Methoxydodecanol]",EC50,HIV-1,> 450 µM
"COCCCCCCCCCCCC(C)=O [Example 89, 13-Methoxy-2-tridecanone]",EC50,HIV-1,> 430 µM
